{"source": "paper PMC3601116", "about": "“Surfactant Protein D Modulates HIV Infection of Both T-Cells and Dendritic Cells” (PLoS ONE, 2013)", "key": {"[1]": {"molecular_target": "T1, Surfactant Protein D (SP-D) (Homo sapiens, UniProt P35247)", "T1 construct": "gene SFTPD; dodecamer (four trimeric units)", "T1 sequence (P35247 21-375)": "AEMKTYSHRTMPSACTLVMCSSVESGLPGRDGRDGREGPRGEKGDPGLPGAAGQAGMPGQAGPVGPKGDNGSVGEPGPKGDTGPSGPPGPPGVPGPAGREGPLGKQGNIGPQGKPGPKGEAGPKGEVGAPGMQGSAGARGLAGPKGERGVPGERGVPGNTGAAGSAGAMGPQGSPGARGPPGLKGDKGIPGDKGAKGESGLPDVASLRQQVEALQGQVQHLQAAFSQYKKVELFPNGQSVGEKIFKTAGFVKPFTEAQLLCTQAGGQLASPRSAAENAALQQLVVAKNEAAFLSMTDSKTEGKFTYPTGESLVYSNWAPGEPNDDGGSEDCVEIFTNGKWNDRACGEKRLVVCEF", "assay": "SPR competition of SP-D ([…]) binding to immobilised biotinylated gp120 IIIB", "details": "5 mM CaCl2, SP-D in solution, lectin site (CRD), competes with gp120 glycans"}, "[2]": {"molecular_target": "T1, Surfactant Protein D (SP-D)", "assay": "SPR competition of inactivated HIV BaL particles binding to immobilised SP-D", "details": "pH 7.4, calcium, 25 C, lectin site (CRD), competes with HIV glycans"}, "[3]": {"molecular_target": "recombinant gp120 IIIB (HIV strain IIIB) (UniProt P04578)", "assay": "ELISA; competition: gp120 IIIB (2 µg/mL) immobilised; biotinylated soluble DC-SIGN, biotinylated soluble CD4 or CVN added together with SP-D (0-40 µg/mL); absorbance without competitor taken as 100%"}}, "data": [{"molecule": "OC[C@H]1OC(O)[C@H](O)[C@@H](O)[C@H]1O", "note": "(stereo partly drawn) [D-galactose]", "values": [{"measurement": "IC50", "setting": "[1]; read-out: IC50", "result": 32.2, "unit": "mM"}]}, {"molecule": "CC(=O)N[C@H]1C(O)O[C@H](CO)[C@@H](O)[C@@H]1O", "note": "(stereo partly drawn) [GlcNAc]", "values": [{"measurement": "IC50", "setting": "[1]", "result": 22.9, "unit": "mM"}]}, {"molecule": "OC[C@H]1OC(O)[C@H](O)[C@@H](O)[C@@H]1O", "note": "(stereo partly drawn) [glucose]", "values": [{"measurement": "IC50", "setting": "[2]", "result": 5.4, "unit": "mM"}]}, {"molecule": "OC[C@H]1O[C@H](O[C@H]2[C@H](O)[C@@H](O)C(O)O[C@@H]2CO)[C@H](O)[C@@H](O)[C@@H]1O", "note": "(stereo partly drawn) [maltose]", "values": [{"measurement": "IC50", "setting": "[1]", "result": 6.5, "unit": "mM"}]}, {"molecule": "OC[C@H]1OC(O)[C@@H](O)[C@@H](O)[C@@H]1O", "note": "(stereo partly drawn) [mannose]", "values": [{"measurement": "IC50", "setting": "[1]; read-out: IC50", "result": 7.8, "unit": "mM"}]}, {"molecule": "Surfactant Protein D (from UniProt P35247 21-375) (natural protein)", "values": [{"measurement": "maximum inhibition of sDC-SIGN binding to gp120", "setting": "[3]", "result": 80, "unit": "%"}]}]}
